Patent US6841367B2, “Human receptor tyrosine kinase, KDR” (Merck & Co., Inc., priority 1997, dated 2005)

Tested on: KDR
Assay: Tyrosine autophosphorylation of KDRcyt mutants (antiphosphotyrosine Western blot)
Type: biochemical, human
Conditions: 1 mM ATP, 37° C., 10 min; Western blot with antiphosphotyrosine antibody PY20 (FIG. 4A)
Protocol: Purified KDRcytE848 and KDRcytV848 were incubated with at concentrations of 12 ng or 120 ng, respectively, or without 1 mM ATP at 37° C. for 10 min. The reaction was stopped by the addition of an equal volume of 2× SDS-PAGE sample buffer and boiled for 5 min. Reaction products were separated by 7.5%/SDS-PAGE and analyzed by Western blot probed with the antiphosphotyrosine antibody PY20 (Transduction Laboratories; FIG. 4A), or an anti-KDR antibody (Santa Cruz Biotechnology; FIG. 4B) visualized using the ECL detection kit and quantified by scanning with a densitometer (Molecular Dynamics).

“GST-KDRcytV848: GST fusion of the human KDR cytoplasmic tyrosine kinase domain with Val at position 848 (SEQ ID NO:2)” was tested, and the autophosphorylation was “resulted in autophosphorylation”.
